# Results: the supplement of paper PMC10307832
# Key:
# Experiment in all cases: relative viability (nuclei count vs DMSO), 5 days (fraction); higher = more cells survive
# [1] = compound: CN1C=C(C2=CC=CC=C21)/C=C\3/C4=C(C=CC=N4)NC3=O + CC1(C)CCC(c2ccc(Cl)cc2)=C(CN2CCN(c3ccc(C(=O)NS(=O)(=O)c4ccc(N[C@H](CCN5CCOCC5)CSc5ccccc5)c(S(=O)(=O)C(F)(F)F)c4)cc3)CC2)C1 [Navitoclax] (partner 0.5 µM)
# Summary of the method: (§1)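 Each reported value is a median over duplicate plates. It expresses relative viability: treated-well nuclei count divided by vehicle-well nuclei count. Lung cancer cell lines in 1536-well plates were dosed by pin tool a day after seeding, alone with one drug or with a fixed anchor-drug dose plus five library-drug doses (not always all listed) in √10 steps, and nuclei were counted after 5 days.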
# [2] = compound: CC(=O)Nc1cccc(-n2c(=O)n(C3CC3)c(=O)c3c(Nc4ccc(I)cc4F)n(C)c(=O)c(C)c32)c1 [Trametinib] + CCNC(=O)c1noc(-c2cc(C(C)C)c(O)cc2O)c1-c1ccc(CN2CCOCC2)cc1 [Luminespib] (partner 0.01 µM)
# Summary of the method: as §1
# [3] = compound: CC(=O)Nc1cccc(-n2c(=O)n(C3CC3)c(=O)c3c(Nc4ccc(I)cc4F)n(C)c(=O)c(C)c32)c1 [Trametinib] + NC(=O)Nc1cc(-c2cccc(F)c2)sc1C(=O)N[C@H]1CCCNC1 [AZD7762] (partner 0.2 µM)
# Summary of the method: as §1
# [4] = compound: CC(=O)Nc1cccc(-n2c(=O)n(C3CC3)c(=O)c3c(Nc4ccc(I)cc4F)n(C)c(=O)c(C)c32)c1 [Trametinib] + Cc1nc(NC(=O)N2CCC[C@H]2C(N)=O)sc1-c1ccnc(C(C)(C)C(F)(F)F)c1 [Alpelisib] (partner 2 µM)
# Summary of the method: as §1
Cell Line,relative viability ([1]; first compound 0.02 µM),relative viability ([1]; first compound 0.06325 µM),relative viability ([1]; first compound 0.2 µM),relative viability ([1]; first compound 0.6325 µM),relative viability ([1]; first compound 2 µM),relative viability ([2]; first compound 0.0025 µM),relative viability ([2]; first compound 0.007906 µM),relative viability ([2]; first compound 0.025 µM),relative viability ([2]; first compound 0.07906 µM),relative viability ([2]; first compound 0.25 µM),relative viability ([3]; first compound 0.0025 µM),relative viability ([3]; first compound 0.007906 µM),relative viability ([3]; first compound 0.025 µM),relative viability ([3]; first compound 0.07906 µM),relative viability ([3]; first compound 0.25 µM),relative viability ([4]; first compound 0.0025 µM),relative viability ([4]; first compound 0.007906 µM),relative viability ([4]; first compound 0.025 µM),relative viability ([4]; first compound 0.07906 µM),relative viability ([4]; first compound 0.25 µM)
HOP-62,1.25,1.14,0.703,0.99,1,0.933,0.754,0.533,0.361,0.173,0.737,0.461,0.251,0.243,0.211,0.813,0.984,0.525,0.377,0.166
LC-2-ad,0.412,0.304,0.439,0.412,0.389,0.975,0.951,1,0.71,0.447,0.732,0.584,0.518,0.403,0.406,0.864,0.452,0.662,0.408,0.233
LCLC-97TM1,0.322,–,–,0.566,0.36,0.802,0.493,0.291,0.226,0.234,0.352,0.306,0.137,0.161,0.123,0.216,0.199,0.146,0.183,0.11
LK-2,–,0.683,0.638,0.726,1.04,0.159,0.183,0.223,0.161,0.191,0.347,0.544,0.288,0.259,0.12,1,0.862,0.958,1.28,0.303
LOU-NH91,0.555,0.603,0.596,0.602,0.678,0.348,0.365,0.278,0.305,0.279,0.769,0.704,0.704,0.676,0.548,0.674,0.601,0.619,0.545,0.4
LU99A,0.86,0.849,0.857,0.865,0.79,0.297,0.241,0.187,0.189,0.151,0.365,0.353,0.2,0.214,0.179,0.571,0.456,0.444,0.262,0.172
LXF-289,0.962,0.908,0.97,1.01,1.01,0.616,0.642,0.507,0.491,0.351,0.994,0.906,0.818,0.71,0.534,0.961,0.894,0.758,0.672,0.495
NCI-H23,0.558,0.764,–,0.807,0.931,0.234,0.185,0.17,0.213,0.221,0.256,0.233,0.232,0.158,0.191,0.635,0.509,0.264,0.349,0.208
NCI-H322M,1.31,1.3,1.12,1.12,1.29,0.749,0.634,0.471,0.473,0.404,0.602,0.436,0.482,0.414,0.425,0.78,0.59,0.555,0.455,0.316
NCI-H441,1.08,–,0.906,0.596,0.875,0.331,0.264,0.362,0.285,0.327,1.15,0.972,0.734,0.658,0.618,0.836,0.659,0.638,0.533,0.33
NCI-H460,1.27,1.21,1.39,–,1.43,0.0314,0.0296,0.0277,0.0263,0.0269,0.731,0.751,0.739,0.505,0.338,0.417,0.146,0.115,0.0733,0.0121
NCI-H596,0.957,0.925,0.901,0.779,0.902,0.901,0.775,0.65,0.727,0.523,0.942,1.05,0.921,0.756,0.653,0.34,0.422,0.311,0.371,0.342
NCI-H647,0.767,0.983,–,0.919,0.935,0.183,0.12,0.324,0.209,0.102,0.543,0.3,0.262,0.174,0.165,1.14,0.956,0.768,0.638,0.199
NCI-H727,0.396,0.349,0.385,0.372,0.4,0.297,0.314,0.291,0.244,0.225,0.356,0.386,0.315,0.279,0.355,0.312,0.211,0.227,0.172,0.183
NCI-H838,0.941,1.04,1.05,1.04,1.1,0.289,0.291,0.247,0.204,0.208,0.943,0.827,0.858,0.858,0.697,0.97,0.877,–,0.709,0.551
NCI-H1355,0.868,0.921,0.793,0.632,0.673,0.486,0.605,0.323,0.35,0.3,0.747,0.706,0.539,0.599,0.591,0.68,0.627,0.356,0.388,0.352
